Measurements taken from US20230174521A1, “NOVEL DIACYLGLYCERIDE O-ACYLTRANSFERASE 2 INHIBITORS” (Merck Sharp & Dohme LLC, priority 2020, published 2023).

Target: T1, human DGAT2 (hDGAT2) (Homo sapiens, UniProt Q96PD7)
T1 construct: made in house; host or cells: Sf-9 insect cells (baculovirus infection); membrane fraction
T1 sequence (Q96PD7 1-388): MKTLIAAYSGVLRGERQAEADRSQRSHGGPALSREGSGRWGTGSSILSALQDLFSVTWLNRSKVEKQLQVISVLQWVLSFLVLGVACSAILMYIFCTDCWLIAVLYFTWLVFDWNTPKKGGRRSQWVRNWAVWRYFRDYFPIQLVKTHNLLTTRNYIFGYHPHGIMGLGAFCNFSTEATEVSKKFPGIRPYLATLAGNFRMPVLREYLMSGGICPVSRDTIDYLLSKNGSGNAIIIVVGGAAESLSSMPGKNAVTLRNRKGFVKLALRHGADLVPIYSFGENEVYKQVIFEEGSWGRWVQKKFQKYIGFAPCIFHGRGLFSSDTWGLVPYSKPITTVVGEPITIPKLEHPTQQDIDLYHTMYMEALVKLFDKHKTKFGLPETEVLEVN
Experiment: DGAT2 enzymatic activity assay (LC/MS/MS detection of 13C18-triolein, Sf-9 membrane prep)
Assay type: biochemical
Conditions: hDGAT2 Sf-9 membrane, 25 μM diolein, 5 μM 13C oleoyl-CoA, rt
Procedure: Sf-9 insect cells were maintained in Grace's insect cell culture medium with 10% heated-inactivated fetal bovine serum, 1% Pluronic F-68 and 0.14 μg/ml Kanamycine sulfate at 27° C. in a shaker incubator. After infection with untagged baculovirus expressing human DGAT2 (hDGAT2) at multiplicity of infection (MOI) 3 for 48 hours, cells were harvested. Cell pellets were suspended in buffer containing 10 mM Tris-HCl pH 7.5, 1 mM EDTA, 250 mM sucrose and Complete Protease Inhibitor Cocktail (Sigma Aldrich), and sonicated on ice. Cell debris were removed by centrifugation at 2000×g for 15 minutes. Membrane fractions were isolated by ultracentrifugation (100,000×g), resuspended in the same buffer, and frozen (−80° C.) for later use. The protein concentration was determined with the Pierce™ BCA Protein Assay Kit (Thermo Fisher Scientific). Expression of protein levels was analyzed by immunoblotting with rabbit anti-DGAT2 antibody (Abcam, ab102831) and donkey anti-rabbit IgG H&L Alexa Fluor® 647 (Abcam, ab150075) followed by detection using Typhoon FLA9000 (GE Healthcare).
LC/MS/MS analyses were performed using Thermal Fisher's LX4-TSQ Vantage system. This system consists of an Agilent binary high-performance liquid chromatography (HPLC) pumps and a TSQ Vantage triple quadrupole MS/MS instrument. For each sample, 2 μL samples from the top organic layer of in-plate liquid-liquid extraction were injected onto a Thermo Betabasic C4 column (2.1 mm×20 mm, 5 μm particle size). The samples were then eluted using the following conditions; mobile phase: Isopropanol: acetonitrile/10 mM ammonium formate=50/35/15 (v/v/v), flow rate: 0.8 mL/min, temperature: 25° C. Data was acquired in positive mode using a heated electrospray ionization (HESI) interface. The operational parameters for the TSQ Vantage MS/MS instrument were a spray voltage of 3000 V, capillary temperature of 280° C., vaporizer temperature 400° C., sheath gas 45 arbitrary unit, Aux gas 10 arbitrary units, S-lens 165 and collision gas 1.0 mTorr. […] (SRM) chromatograms of ^13C18-triolein (Q1: 920.8>Q3:621.3) and internal standard ^13C21-triolein (Q1: 923.8>Q3:617.3) were collected for 33 sec. The peak area was integrated by Xcalibur Quan software. The ratio between the ^13C18triolein generated in the reaction and spiked in internal standard ^13C21-triolein was used to generate percentage inhibition and IC50 values. Compound percentage inhibition was calculated by the following formula: Inhibition %=1−[(compound response−low control)/(high control−low control)]×100%. Potent compounds were titrated and IC50 were calculated by 4 parameter sigmoidal curve fitting formula.
DGAT2 activity was determined by measuring the amount of enzymatic product ^13C18-triolein (^13C-1,2,3-Tri(cis-9-octadecenoyl)glycerol) using the membrane prep mentioned above. The assay was carried out in ABgene 384-well assay plates in a final volume of 25 μL at rt. The assay mixture contained the following: assay buffer (100 mM Tris.Cl, pH 7.0, 20 mM MgCl2, 5% ethanol), 25 μM of diolein, 5 μM of ^13C oleoyl-CoA and 8 ng/μL of DGAT2 membrane.

Structure (SMILES) | IC50
CC(C)c1nn(-c2cccc(OC(F)F)c2)c2cnc(C(=O)NC3(C)CS(=O)(=O)C3)cc12 [Example 13] | 77 nM
Cn1nccc1-c1nn(-c2cccc(OC(F)F)c2)c2ccc(C(=O)NC3(C)CS(=O)(=O)C3)cc12 [Example 1, 1-[3-(difluoromethoxy)phenyl]-N-(3-methyl-1,1-dioxo-thietan-3-yl)-3-(2-methylpyrazol-3-yl)indazole-5-carboxamide] | 46 nM
COCC(C)NC(=O)c1ccc2c(c1)c(-c1ccccc1Cl)cn2-c1ccc(F)cc1 (centres unmarked) [Example 10, 3-(2-chlorophenyl)-1-(4-fluorophenyl)-N-(1-methoxypropan-2-yl)-1H-indole-5-carboxamide] | 3510 nM
CCc1nn(-c2cccc(OC(F)F)c2)c2ccc(C(=O)NC3(C)CS(=O)(=O)C3)cc12 [Example 14, l-(3-(difluoromethoxy)phenyl)-3-ethyl-N-(3-methyl-1,1-dioxo-thietan-3-yl)indazole-5-carboxamide] | 11 nM
Cn1nccc1-n1nc(-c2ccc(F)cc2)c2cc(C(=O)NC3(C)CS(=O)(=O)C3)ccc21 [Example 3, 3-(4-fluorophenyl)-N-(3-methyl-1,1-dioxo-thietan-3-yl)-1-(2-methylpyrazol-3-yl)indazole-5-carboxamide] | 389 nM
C[C@]1(NC(=O)c2ccc3c(c2)c(-c2ccc(F)cc2)cn3-c2ccc(F)cc2)CCS(=O)(=O)C1 [Example 7, (S)-1,3-bis(4-fluorophenyl)-N-(3-methyl-1,1-dioxidotetrahydrothiophen-3-yl)-1H-indole-5-carboxamide] | 578 nM
C[C@]1(NC(=O)c2ccc3c(c2)c(-c2ccc(F)cc2)cn3-c2cccc(OC(F)F)c2)CCS(=O)(=O)C1 [Example 6, (S)-1-(3-(difluoromethoxy)phenyl)-3-(4-fluorophenyl)-N-(3 - methyl-1,1-dioxidotetrahydrothiophen-3-yl)-1H-indole-5-carboxamide] | 0.5 nM
CC(C)c1nn(-c2cccc(OC(F)F)c2)c2ncc(C(=O)N[C@@]3(C)CCS(=O)(=O)C3)cc12 [Example 11, (S)-1-(3-(difluoromethoxy)phenyl)-3-isopropyl-N-(3-methyl-1,1-dioxidotetrahydrothlophen-3-yl)-1H-pyrazolo[3,4-b]pyridine-5-carboxamide] | 16 nM
CCCc1nn(-c2cccc(OC(F)F)c2)c2ncc(C(=O)N[C@@]3(C)CCS(=O)(=O)C3)cc12 [Example 15, (S)-1-(3-(difluoromethoxy)phenyl)-N-(3-methyl-1,1-dioxidotetrahydrothiophen-3-yl)-3-propyl-1H-pyrazolo[3,4-b]pyridine-5-carboxamide] | 6.7 nM
C[C@]1(NC(=O)c2cnc3c(c2)c(-c2ccc(F)cc2)nn3-c2cccc(OC(F)F)c2)CCS(=O)(=O)C1 [Example 4, (S)-1-(3-(difluoromethoxy)phenyl)-3-(4-fluorophenyl)-N-(3-methyl-l,1-dioxo-thiolan-3-yl)pyrazolo[3,4-b]pyridine-5-carboxamide] | 3.2 nM

Results, then the compound that gave them:

IC50 | Structure (SMILES)
5.1 nM | CC1(NC(=O)c2ccc3c(c2)c(C(O)C2CC2)nn3-c2cccc(OC(F)F)c2)CS(=O)(=O)C1 (single isomer, unassigned) [Example 29a, 3-[cyclopropyl(hydroxy)methyl] - 1-[3-(difluoromethoxy)phenyl]-N-(3-methyl-1,1-dioxo-thietan-3-yl)indazole-5-carboxamide]
13 nM | CC1(NC(=O)c2cnc3c(c2)c(C(C)(C)O)nn3-c2cc(OCC(F)F)ncc2F)CS(=O)(=O)C1 [Example 45, 1-(2-(2,2-difluoroethoxy)-5-fluoropyridin-4-yl)-3-(2-hydroxypropan-2-yl)-N-(3-methyl-1,1-dioxidothietan-3-yl)-1H-pyrazolo[3,4-b]pyridine-5-carboxamide]
59 nM | Cc1cc(C(=O)NC2(C)CS(=O)(=O)C2)cc2c(C(C)(C)O)nn(-c3cccc(OC(F)F)c3)c12 [Example 36, 1-(3-(difluoromethoxy)phenyl)-3-(2-hydroxypropan-2-yl)-7-methyl-N-(3-methyl-1,1-dioxidothietan-3-yl)-1H-indazole-5-carboxamide]
2.2 nM | CC(C)c1nn(-c2cc(OCC(F)F)ncc2F)c2ncc(C(=O)NC3(C)CS(=O)(=O)C3)cc12 [Example 26, 1-(2-(2,2-difluoroethoxy)-5-fluoropyridin-4-yl)-3-isopropyl-N-(3-methyl-1,1-dioxidothietan-3-yl)-1H-pyrazolo[3,4-b]pyridine-5-carboxamide]
5.8 nM | CC(C)(O)Cc1nn(-c2cccc(OC(F)F)c2)c2ncc(C(=O)NC3(C)CS(=O)(=O)C3)cc12 [Example 23]
51 nM | CC1(NC(=O)c2ccc3c(c2)c(C2(O)CCOCC2)nn3-c2cccc(OC(F)F)c2)CS(=O)(=O)C1 [Example 22]
6.4 nM | CC(C)(O)Cc1nn(-c2cc(OC(F)F)ccc2F)c2ncc(C(=O)NC3(C)CS(=O)(=O)C3)cc12 [Example 24, l-(5-(difluoromethoxy)-2-fluorophenyl)-3-(2-hydroxy-2-methylpropyl)-N-(3-methyl-1,1-dioxidothietan-3-yl)-1H-pyrazolo[3,4-b]pyridine-5-carboxamide]
15 nM | CC1(NC(=O)c2cc(F)c3c(c2)c(C(C)(C)O)nn3-c2cccc(OC(F)F)c2)CS(=O)(=O)C1 [Example 37, l-(3-(difluoromethoxy)phenyl)-7-fluoro-3-(2-hydroxypropan-2-yl)-N-(3-methyl-1,1-dioxidothietan-3-yl)-1H-indazole-5-carboxamide]
31 nM | CC1(NC(=O)c2cnc3c(c2)c(C(C)(C)O)nn3-c2cc(OC(F)F)ncc2F)CS(=O)(=O)C1 [Example 46, l-(2-(difluoromethoxy)-5-fluoropyridin-4-yl)-3-(2-hydroxypropan-2-yl)-N-(3-methyl-1,1-dioxidothietan-3-yl)-1H-pyrazolo[3,4-b]pyridine-5-carboxamide]
14 nM | CC(C)c1nn(-c2cccc(C3CC3)c2)c2ncc(C(=O)NC3(C)CS(=O)(=O)C3)cc12 [Example 16, l-(3-cyclopropylphenyl)-3-isopropyl-N-(3-methyl-1,1-dioxidothietan-3-yl)-1H-pyrazolo[3,4-b]pyridine-5-carboxamide]
24 nM | CCC(O)c1nn(-c2cccc(OC(F)F)c2)c2ccc(C(=O)NC3(C)CS(=O)(=O)C3)cc12 (single isomer, unassigned) [Example 28a, 1-(3-(difluoromethoxy)phenyl)-3-(1-hydroxypropyl)-N-(3-methyl-1,1-dioxidothietan-3-yl)-1H-indazole-5-carboxamide]
27 nM | CC(C)(O)c1nn(-c2cccc(OC(F)F)c2)c2ccc(C(=O)N[C@@]3(C)CCS(=O)(=O)C3)cc12 [Example 33, (S)-1-(3-(difluoromethoxy)phenyl)-3-(2-hydroxypropan-2-yl)-N-(3-methyl-1,1-dioxidotetrahydrothiophen-3-yl)-1H-indazole-5-carboxamide]
118 nM | CC1(NC(=O)c2cnc3c(c2)c(C(C)(O)C(F)F)nn3-c2cccc(OC(F)F)c2)CS(=O)(=O)C1 (centres unmarked) [Example 43, 3-(1,1-difluoro-2-hydroxypropan-2-yl)-1-(3 - (difluoromethoxy)phenyl)-N-(3-methyl-1,1-dioxidothietan-3-yl)-1H-pyrazolo[3,4-b]pyridine-5-carboxamide]
